US20240287046A1, “COMPOUNDS AND RADIOLIGANDS FOR TARGETING NEUROTENSIN RECEPTOR AND USES THEREOF” (Full-Life Technologies HK Limited, priority 2022, published 2024)

Tested on: ASPC-1 tumor-bearing mice
Assay: Biodistribution of radionuclide labeled complexes in ASPC-1 tumor-bearing mice
Format: in vivo, BALB/c nude mice
Settings: for ratio of tumor AUC verse normal organ AUC: compared to ^177Lu—C2
Experimental: The BALB/c nude mice (Charles River, Beijing) were utilized to establish the xenografted model for biodistribution study. All animal care and experimental procedure were performed by following the animal protocols approved by the ethics committee of China Institute of Radiation Protection.
Briefly, each mouse was inoculated with approximately 4×10^6 ASPC-1 cells (human pancreatic cancer cell line) or HT-29 cells (human colorectal adenocarcinoma cell line) expressing human NTSR-1 by subcutaneous injection at rear flank. After inoculation, the xenografted tumors were allowed to grow for ˜2-4 weeks till the tumor weight reached to about 0.05 to 0.50 g (0.20 g in average).
Biodistribution studies were performed by administrating the radionuclide labeled test compound at a dose of ˜30-50 μCi (100 μL in 0.9% NaCl, ˜1.11-1.85 MBq, with specific activity 30-250 μCi/nmol) to each animal through tail vein injection.
At different time points after the administration, the mice treated with each compound were euthanized. The tissues and organs of the animals in each group were collected, excised, weighed, and analyzed in a PerkinElmer 2480 WIZARD2γ counter, and the percent injected dose (% ID) and % ID/g of each organ or tissue were calculated.

Structure (SMILES) | % ID/g (4 h) Blood (Blood, 4 h) [% ID/g] | % ID/g (4 h) Femur (Femur, 4 h) [% ID/g] | % ID/g (4 h) Heart (Heart, 4 h) [% ID/g] | % ID/g (4 h) Intestine (Intestine, 4 h) [% ID/g] | % ID/g (4 h) Kidney (Kidney, 4 h) [% ID/g] | % ID/g (4 h) Liver (Liver, 4 h) [% ID/g] | % ID/g (4 h) Lung (Lung, 4 h) [% ID/g] | % ID/g (4 h) Muscle (Muscle, 4 h) [% ID/g] | % ID/g (4 h) Pancreas (Pancreas, 4 h) [% ID/g] | % ID/g (4 h) Spleen (Spleen, 4 h) [% ID/g] | % ID/g (4 h) Stomach (Stomach, 4 h) [% ID/g] | % ID/g (4 h) Tumor (Tumor, 4 h) [% ID/g] | % ID/g (24 h) Blood (Blood) [% ID/g] | % ID/g (24 h) Femur (Femur) [% ID/g] | % ID/g (24 h) Heart (Heart) [% ID/g] | % ID/g (24 h) Intestine (Intestine) [% ID/g] | % ID/g (24 h) Kidney (Kidney) [% ID/g] | % ID/g (24 h) Liver (Liver) [% ID/g] | % ID/g (24 h) Lung (Lung) [% ID/g] | % ID/g (24 h) Muscle (Muscle) [% ID/g] | further results
COc1cccc(OC)c1-c1cc(C(=O)NC2(C(=O)O)C3CC4CC(C3)CC2C4)nn1-c1ccc(C(=O)N(CCCNC(=O)CN2CCN(CC(=O)[O-])CCN(CC(=O)[O-])CCN(CC(=O)[O-])CC2)CCCN(C)C)cc1C(C)C.[177Lu+3] (centres unmarked) [^177Lu-C-5, reference compound] | 0.22 ± 0.07 | 0.13 ± 0.1 | 0.16 ± 0.06 | 0.42 ± 0.16 | 0.33 ± 0.09 | 0.79 ± 0.08 | 0.3 ± 0.15 | 0.06 ± 0.02 | 0.06 ± 0.02 | 0.08 ± 0.03 | 0.4 ± 0.22 | 13.06 ± 6.54 | – | – | – | – | – | – | – | – | uptake ratio Tumor/Blood (1 h): 4.7; uptake ratio Tumor/Kidney (1 h): 17.2; uptake ratio Tumor/Liver (1 h): 17.9; uptake ratio Tumor/Lung (1 h): 9.0; uptake ratio Tumor/Blood (4 h): 60.5; uptake ratio Tumor/Kidney (4 h): 40.0; uptake ratio Tumor/Liver (4 h): 16.6; uptake ratio Tumor/Lung (4 h): 43.3; % ID/g (1 h) Blood (Blood, 1 h): 3.18 ± 0.24 % ID/g; % ID/g (1 h) Femur (Femur, 1 h): 0.53 ± 0.04 % ID/g; % ID/g (1 h) Heart (Heart, 1 h): 1.46 ± 0.24 % ID/g; % ID/g (1 h) Intestine (Intestine, 1 h): 1.28 ± 0.11 % ID/g; % ID/g (1 h) Kidney (Kidney, 1 h): 0.87 ± 0.05 % ID/g; % ID/g (1 h) Liver (Liver, 1 h): 0.84 ± 0.43 % ID/g; % ID/g (1 h) Lung (Lung, 1 h): 1.66 ± 0.93 % ID/g; % ID/g (1 h) Muscle (Muscle, 1 h): 0.31 ± 0.05 % ID/g; % ID/g (1 h) Pancreas (Pancreas, 1 h): 0.26 ± 0.05 % ID/g; % ID/g (1 h) Spleen (Spleen, 1 h): 0.26 ± 0.05 % ID/g; % ID/g (1 h) Stomach (Stomach, 1 h): 0.55 ± 0.13 % ID/g; % ID/g (1 h) Tumor (Tumor, 1 h): 14.96 ± 6.57 % ID/g
COc1cccc(OC)c1-c1cc(C(=O)NC2(C(=O)O)C3CC4CC(C3)CC2C4)nn1-c1ccc(N(C)CCCN(C)CCCN(C)C(=O)CN2CCN(CC(=O)[O-])CCN(CC(=O)[O-])CCN(CC(=O)[O-])CC2)cc1C(C)C.[177Lu+3] (centres unmarked) [^177Lu-I-1] | 2.08 ± 0.14 | 0.72 ± 0.05 | 0.68 ± 0.5 | 0.98 ± 0.2 | 3.66 ± 2.51 | 1.81 ± 0.43 | 0.64 ± 0.1 | 0.47 ± 0.25 | 0.41 ± 0.28 | 0.42 ± 0.16 | 0.57 ± 0.16 | 6.93 ± 0.71 | 0.06 ± 0.02 | 0.19 ± 0.09 | 0.24 ± 0.1 | 0.37 ± 0.07 | 3.16 ± 1.81 | 0.97 ± 0.45 | 0.31 ± 10.1 | 0.13 ± 0.05 | tumor AUC over 72 hours compared to ^177Lu—C2: significantly higher tumor AUC; % ID/g (72 h) Blood (Blood): 0.04 ± 0.01 % ID/g; % ID/g (72 h) Femur (Femur): 0.15 ± 0.06 % ID/g; % ID/g (72 h) Heart (Heart): 0.18 ± 0.03 % ID/g; % ID/g (72 h) Intestine (Intestine): 0.51 ± 0.1 % ID/g; % ID/g (72 h) Kidney (Kidney): 1.3 ± 0.61 % ID/g; % ID/g (72 h) Liver (Liver): 1.06 ± 0.46 % ID/g; % ID/g (72 h) Lung (Lung): 0.33 ± 0.28 % ID/g; % ID/g (72 h) Muscle (Muscle): 0.06 ± 0.01 % ID/g; % ID/g (24 h) Pancreas (Pancreas): 0.18 ± 0.09 % ID/g; % ID/g (72 h) Pancreas (Pancreas): 0.07 ± 0.04 % ID/g; % ID/g (24 h) Spleen (Spleen): 0.53 ± 0.25 % ID/g; % ID/g (72 h) Spleen (Spleen): 0.24 ± 0.08 % ID/g; % ID/g (24 h) Stomach (Stomach): 0.28 ± 0.17 % ID/g; % ID/g (72 h) Stomach (Stomach): 0.1 ± 0.02 % ID/g; % ID/g (24 h) Tumor (Tumor): 22.56 ± 1.81 % ID/g; % ID/g (72 h) Tumor (Tumor): 7.23 ± 4.46 % ID/g; ratio of tumor AUC verse normal organ AUC: significantly improved
COc1cccc(OC)c1-c1cc(C(=O)NC2(C(=O)O)C3CC4CC(C3)CC2C4)nn1-c1ccc(NCCCN(C)CCCNC(=O)CN2CCN(CC(=O)[O-])CCN(CC(=O)[O-])CCN(CC(=O)[O-])CC2)cc1C(C)C.[177Lu+3] (centres unmarked) [^177Lu-I-2] | 9.23 ± 0.36 | 1.4 ± 0.79 | 3.78 ± 0.03 | 2.00 ± 0.18 | 2.03 ± 0.38 | 5.15 ± 1.65 | 1.77 ± 0.37 | 1.48 ± 1.16 | 0.54 ± 0.14 | – | 0.86 ± 0.1 | 23.11 ± 18.15 | 0.28 ± 0.03 | 0.39 ± 0.1 | 0.4 ± 0.13 | 1.00 ± 0.18 | 2.39 ± 0.77 | 1.66 ± 0.55 | 0.39 ± 0.11 | 0.23 ± 0.14 | tumor AUC over 72 hours compared to ^177Lu—C2: significantly higher tumor AUC; % ID/g (72 h) Blood (Blood): 0.07 ± 0.01 % ID/g; % ID/g (72 h) Femur (Femur): 0.111 ± 0.09 % ID/g; % ID/g (72 h) Heart (Heart): 0.18 ± 0.1 % ID/g; % ID/g (72 h) Intestine (Intestine): 0.55 ± 0.11 % ID/g; % ID/g (72 h) Kidney (Kidney): 1.69 ± 1.04 % ID/g; % ID/g (72 h) Liver (Liver): 1.02 ± 0.44 % ID/g; % ID/g (72 h) Lung (Lung): 0.17 ± 0.02 % ID/g; % ID/g (72 h) Muscle (Muscle): 0.05 ± 0.03 % ID/g; % ID/g (24 h) Pancreas (Pancreas): 0.32 ± 0.15 % ID/g; % ID/g (72 h) Pancreas (Pancreas): 0.08 ± 0.02 % ID/g; % ID/g (24 h) Spleen (Spleen): 1.07 ± 0.31 % ID/g; % ID/g (72 h) Spleen (Spleen): 0.19 ± 0.03 % ID/g; % ID/g (24 h) Stomach (Stomach): 0.43 ± 0.27 % ID/g; % ID/g (72 h) Stomach (Stomach): 0.22 ± 0.1 % ID/g; % ID/g (24 h) Tumor (Tumor): 25.61 ± 1.69 % ID/g; % ID/g (72 h) Tumor (Tumor): 15.44 ± 5.61 % ID/g; ratio of tumor AUC verse normal organ AUC: significantly improved
COc1cccc(OC)c1-c1cc(C(=O)NC2(C(=O)O)C3CC4CC(C3)CC2C4)nn1-c1ccc(SCCCN(C)CCCN(C)C(=O)CN2CCN(CC(=O)[O-])CCN(CC(=O)[O-])CCN(CC(=O)[O-])CC2)cc1C(C)C.[177Lu+3] (centres unmarked) [^177Lu-I-8] | 6.25 ± 1.53 | 0.89 ± 0.74 | 2.39 ± 0.51 | 3.51 ± 1.14 | 3.09 ± 1.79 | 7.4 ± 2.9 | 2.92 ± 2.09 | 0.54 ± 0.28 | 0.53 ± 0.09 | 0.71 ± 0.16 | 1.74 ± 1.36 | 16.7 ± 10.49 | 0.23 ± 0.12 | 0.4 ± 0.16 | 0.5 ± 0.12 | 1.00 ± 0.34 | 1.47 ± 1.07 | 1.86 ± 0.97 | 0.55 ± 0.34 | 0.34 ± 0.14 | % ID/g (24 h) Pancreas (Pancreas): 0.6 ± 0.2 % ID/g; % ID/g (24 h) Spleen (Spleen): 1.22 ± 0.22 % ID/g; % ID/g (24 h) Stomach (Stomach): 0.69 ± 0.46 % ID/g; % ID/g (24 h) Tumor (Tumor): 26.12 ± 10.63 % ID/g
